Assay results reported in US8114865B2, “Indazole derivatives as kinase inhibitors for the treatment of cancer” (Nerviano Medical Sciences S.R.L., priority 2006, dated 2012).

How the values were obtained:
Aurora-2 = molecular target: T1, Aurora-2 (Homo sapiens, UniProt O14965); assay: Biochemical assay for inhibitors of Aurora-2 kinase activity; conditions: read-out: Aur2 IC50
T1 sequence (O14965 1-403): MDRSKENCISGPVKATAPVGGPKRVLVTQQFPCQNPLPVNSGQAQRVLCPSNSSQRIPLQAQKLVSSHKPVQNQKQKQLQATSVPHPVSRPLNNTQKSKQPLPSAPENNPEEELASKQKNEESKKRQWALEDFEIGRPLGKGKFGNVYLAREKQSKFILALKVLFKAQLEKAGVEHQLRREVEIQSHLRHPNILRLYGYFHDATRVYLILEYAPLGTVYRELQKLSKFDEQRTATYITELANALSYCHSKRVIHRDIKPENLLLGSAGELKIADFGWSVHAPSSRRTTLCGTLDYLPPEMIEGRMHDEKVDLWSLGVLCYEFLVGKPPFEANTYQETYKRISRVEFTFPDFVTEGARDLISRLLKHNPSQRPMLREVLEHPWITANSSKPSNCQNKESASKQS
Experimental: The in vitro kinase inhibition assay was conducted mimilarly as described for IGF-1R.
The kinase buffer was composed of 50 mM HEPES, pH 7.0, 10 mM MgCl2, 1 mM DTT, 3 microM Na3VO4, and 0.2 mg/mL BSA.
The kinase assay was run with an enzyme concentration of 2.5 nM, 10 microM ATP, 1 nM ^33P-γ-ATP, and 8 microM substrate, composed of 4 LRRWSLG repeats.

ALK = molecular target: T2, ALK (Homo sapiens, UniProt Q9UM73); assay: Biochemical assay for inhibitors of ALK kinase activity
T2 construct: ALK cytoplasmic domain, corresponding to residues 1060-1620; made in house; host or cells: Sf21 insect cells (baculovirus)
Source text: ALK cytoplasmic domain, corresponding to residues 1060-1620 (the numbers of the amino acid residues refer to the Genbank accession number NP 004295.2) was PCR amplified from a human testis cDNA library.
For cloning purposes, the oligonucleotides included attB sites in order to obtain an attB-flanked PCR product suitable for cloning using the Gateway technology (Invitrogen). Furthermore, for purification purposes, forward primer included a PreScission cleavage site (Amersham Biosciences). The resulting PCR product was cloned in the baculovirus expression vector pVL1393 (Invitrogen), Gateway-modified. For expression and purification purposes, a GST tag was added N-terminal to the ALK cytoplasmic domain. Cloning was performed according to the protocols described in the Gateway manual (Invitrogen).
Baculovirus was generated by cotransfecting Sf9 insect cells with expression vector and the viral DNA using the BaculoGold™ transfection kit (Pharmingen).
Recombinant protein was produced by infecting Sf21 insect cells at the density of 1×10^6 cells/mL with 30 mL viral supernatant per billion cells with shaking at 27° C. After 48 hours of infections the cells were recovered, pelleted and frozen at −80° C.
Cells were resuspended in lysis buffer (Tris-HCl 50 mM pH8, NaCl 150 mM, CHAPS 0.2%, DTT 20 mM, glycerol 20%, “Complete” protease inhibitor cocktail (Roche Diagnostics), Na3VO4 1 mM and lysed by liquid extrusion with a Gaulin homogenizer (Niro Soavi Italy). The lysate was cleared by centrifugation at 20000 g for 30 minutes and loaded on a Glutathione Sepharose 4B (Amersham Biosciences) column.
After extensive wash, recombinant protein was eluted with 10 mM Glutathione in 100 mM Tris-HCl pH8, 10% glycerol.
Affinity purified GST-ALK was loaded on a Heparin Sepharose™ FF (Amersham Biosciences) column and eluted with 50 mM NaCl, 25 mM TRIS pH 7.5, 2 mM DTT, 20% glycerol.
The eluted fractions were pooled and dialyzed against 150 mM NaCl, 50 mM Tris-HCl pH 7.4, 2 mM DTT, 20% glycerol.
The in vitro kinase inhibition assay was conducted in the same way as described for IGF-1R. […]

T2 sequence (Q9UM73 1060-1620): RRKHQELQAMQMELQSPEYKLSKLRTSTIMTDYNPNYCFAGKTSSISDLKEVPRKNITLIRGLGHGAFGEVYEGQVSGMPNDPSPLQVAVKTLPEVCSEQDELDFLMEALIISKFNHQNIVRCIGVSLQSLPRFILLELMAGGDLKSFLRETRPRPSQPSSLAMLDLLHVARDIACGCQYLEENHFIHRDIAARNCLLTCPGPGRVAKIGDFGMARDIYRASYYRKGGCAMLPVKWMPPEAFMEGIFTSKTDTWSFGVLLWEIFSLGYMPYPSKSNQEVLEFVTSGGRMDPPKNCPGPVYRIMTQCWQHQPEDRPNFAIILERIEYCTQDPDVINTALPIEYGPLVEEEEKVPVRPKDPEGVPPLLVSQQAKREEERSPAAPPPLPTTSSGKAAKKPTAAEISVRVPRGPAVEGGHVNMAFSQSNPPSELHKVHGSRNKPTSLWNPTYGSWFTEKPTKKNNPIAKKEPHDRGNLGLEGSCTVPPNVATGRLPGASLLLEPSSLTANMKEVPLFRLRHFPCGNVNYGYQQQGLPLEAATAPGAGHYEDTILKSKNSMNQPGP

Row | Structure (SMILES) | IC50 (Aurora-2) | IC50 (ALK)
1 | CN1CCN(c2ccc(C(=O)Nc3n[nH]c4ccc(S(=O)(=O)c5ccccc5)cc34)cc2)CC1 [Compound 1, N-(5-Benzenesulfonyl-1H-indazol-3-yl)-4-(4-methyl-piperazin-1-yl)-benzamide] | 26 nM | 340 nM
2 | CN1CCN(c2ccc(C(=O)Nc3n[nH]c4ccc(S(=O)(=O)c5ccccc5)cc34)c(NC(=O)[C@@H]3CCCO3)c2)CC1 [Compound 36, (S)-Tetrahydro-furan-2-carboxylic acid [2-(5-benzenesulfonyl-1H-indazol-3-ylcarbamoyl)-5-(4-methyl-piperazin-1-yl)-phenyl]-amide] | 19 nM | 170 nM
3 | CN1CCN(c2ccc(C(=O)Nc3n[nH]c4ccc(S(=O)(=O)c5ccccc5)cc34)c(NC(=O)c3ccc[nH]3)c2)CC1 [Compound 33, 1H-pyrrole-2-carboxylic acid [2-(5-benzenesulfonyl-1H-indazol-3-ylcarbamoyl)-5-(4-methyl-piperazin-1-yl)-phenyl]amide] | 9 nM | 34 nM
